This note sets out measurements from publication PMC7297122 (2020).

A word on the Kd: it is the free concentration of one partner at which half of the binding sites on the other are occupied at equilibrium, for simple one-to-one binding. Lower therefore signals a tighter complex.

The subject of test [1] is NAD+ riboswitch domain 1, wild type (unmodified domain 1 RNA) (RNA, riboswitch) GGCUUCAACAACCCCGUAGGUUGGGCCGCAAGGCAGCGAAUCUACUGGAGCC
The test is described as follows: ITC. Particulars: 100 mM KCl, 10 mM MgCl2; 40 mM HEPES-K pH 7.0 (pH 7.2 in Figure 5 legend), 298 K.

The test system of test [2] is domain 1 crystallization RNA, 5-bromocytidine form (RNA, riboswitch, 5-bromocytidine at 3 or at 42 and 45 (which form per ligand: Table S1, not seen)) GGCUUCAACAACCCCGUAGGUUGGGCCGAAAGGCAGCGAAUCUACUGGAGCC
The test is described as follows: X-ray crystallography. To be noted: Mg2+.

In test [3] the test system is G47 2'-deoxy atomic mutant domain 1 (RNA, riboswitch, 2'-deoxy at 47) GGCUUCAACAACCCCGUAGGUUGGGCCGCAAGGCAGCGAAUCUACUGGAGCC
Briefly: ITC. To be noted: 100 mM KCl, 10 mM MgCl2; 40 mM HEPES-K pH 7.0, 298 K; 1 mM ligand titrated into 100 µM RNA.

In test [4] the test system is domain 1 crystallization RNA, unmodified (RNA, riboswitch) GGCUUCAACAACCCCGUAGGUUGGGCCGAAAGGCAGCGAAUCUACUGGAGCC
Briefly: X-ray crystallography. Particulars: Mg2+.

Test [5] has as its system C6 2'-deoxy atomic mutant domain 1 (RNA, riboswitch, 2'-deoxy at 6) GGCUUCAACAACCCCGUAGGUUGGGCCGCAAGGCAGCGAAUCUACUGGAGCC
Briefly: ITC. To be noted: 100 mM KCl, 10 mM MgCl2; 40 mM HEPES-K pH 7.0, 298 K; 1 mM ligand titrated into 100 µM RNA.

Test [6] deals with C6U:G47A mutant domain 1 (RNA, riboswitch) GGCUUUAACAACCCCGUAGGUUGGGCCGCAAGGCAGCGAAUCUACUAGAGCC
The test is described as follows: ITC. Particulars: 100 mM KCl, 10 mM MgCl2; 40 mM HEPES-K pH 7.0, 298 K; 1 mM ligand titrated into 100 µM RNA.

Each structure is given as a SMILES string.

In test [1], `CNc1ncnc2c1ncn2[C@@H]1O[C@H](COP(=O)(O)OP(=O)(O)OP(=O)(O)O)[C@@H](O)[C@H]1O` came in with a Kd of 50 ± 19 µM. In addition, the binding entry in test [2] is “yes”.
For the compound `NC(=O)C1=CN([C@@H]2O[C@H](COP(=O)(O)OP(=O)(O)OC[C@H]3O[C@@H](n4cnc5c(N)ncnc54)[C@H](O)[C@@H]3O)[C@@H](O)[C@H]2O)C=CC1`, the binding entry in test [2] (only ADP moiety visible, also Mn2+ form 6TFH) is reported as “yes”.
As to `NC(=O)c1ccc[n+]([C@@H]2O[C@H](COP(=O)(O)OP(=O)(O)OC[C@H]3O[C@@H](n4cnc5c(N)ncnc54)[C@H](O)[C@@H]3O)[C@@H](O)[C@H]2O)c1`, the Kd in test [1] is above 150 µM. Further, the binding result in test [2] (ADP moiety and nicotinamide ribose 5' carbon visible) was “yes”.
`Nc1ncnc2c1ncn2[C@@H]1O[C@H](COP(=O)(O)O)[C@@H](O)[C@H]1O`: the binding entry in test [2] is listed as “yes”.
Turning to `Nc1ncnc2c1ncn2[C@@H]1O[C@H](COP(=O)(O)OP(=O)(O)O)[C@@H](O)[C@H]1O`, the dissociation constant (Kd) in test [1] is on record as 89 ± 15 µM. Further, the binding result in test [3] is on record as “weak”; in test [4], “yes”; in test [5], “weak”; in test [6] it was “no”.
For the compound `Nc1ncnc2c1ncn2[C@@H]1O[C@H](COP(=O)(O)OP(=O)(O)OP(=O)(O)O)C[C@H]1O`, in test [4], the binding result is “yes”.
On to `Nc1ncnc2c1ncn2[C@@H]1O[C@H](COP(=O)(O)OP(=O)(O)OP(=O)(O)O)[C@@H](O)[C@H]1O`, for which, in test [2], the binding entry was “yes”.
On to `Nc1ncnc2c1ncn2[C@@H]1O[C@H](COP(=O)(O)OS(=O)(=O)O)[C@@H](OP(=O)(O)O)[C@H]1O`, for which the binding result in test [4] is “yes”.
